Measured values reported in ChEMBL document CHEMBL1201862, “PubChem BioAssay data set” (2004).
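How tested: cells in 96-well plates exposed to compound for 48 hours at five concentrations. GI50 = concentration required for 50% inhibition of growth.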 The source made the active and inactive calls. Cut-off read from the data, not from the text of the source: active = GI50 up to about 1.1 µM and inactive = higher.

Assays:
Experiment in all cases: NCI anticancer screen, dose series, 48 h
[1] = tested on: HCT-116
[2] = tested on: HCT-15
[3] = tested on: KM12
[4] = tested on: MOLT-4
[5] = tested on: NCI-H226
[6] = tested on: OVCAR-3
[7] = tested on: RXF 393
[8] = tested on: SK-MEL-28
[9] = tested on: SK-MEL-5
[10] = tested on: SN12C
[11] = tested on: SNB-19
[12] = tested on: SNB-78
[13] = tested on: SW-620
[14] = tested on: CAKI-1
[15] = tested on: DU-145
[16] = tested on: HCC 2998
[17] = tested on: HOP-62
[18] = tested on: HOP-92
[19] = tested on: NCI-H522
[20] = tested on: PC-3

| SMILES | GI50 [1] | GI50 [2] [µM] | GI50 [3] | GI50 [4] | GI50 [5] | GI50 [6] | GI50 [7] | GI50 [8] | GI50 [9] | GI50 [10] | GI50 [11] | GI50 [12] | GI50 [13] | GI50 [14] | GI50 [15] | GI50 [16] | GI50 [17] | GI50 [18] | GI50 [19] | GI50 [20] |
| --- | --- | --- | --- | --- | --- | --- | --- | --- | --- | --- | --- | --- | --- | --- | --- | --- | --- | --- | --- | --- |
| CC(=O)C1C(c2ccccc2)C2(C)OC(=O)C(C#N)C12C (centres undefined) | > 100 µM (inactive) | > 100 | > 100 µM (inactive) | > 100 µM (inactive) | > 100 µM (inactive) | > 100 µM (inactive) | > 100 µM (inactive) | > 100 µM (inactive) | > 100 µM (inactive) | > 100 µM (inactive) | > 100 µM (inactive) | > 100 µM (inactive) | > 100 µM (inactive) | – | – | – | – | – | – | – |
| Nc1onc2c1Cc1c(noc1N)-c1ccccc1-2 | 48.9 µM (inactive) | 43.8 | 49.8 µM (inactive) | 74.8 µM (inactive) | > 100 µM (inactive) | 53.7 µM (inactive) | 58.1 µM (inactive) | > 100 µM (inactive) | 36.6 µM (inactive) | 85.3 µM (inactive) | > 100 µM (inactive) | – | 57 µM (inactive) | 44.4 µM (inactive) | > 100 µM (inactive) | > 100 µM (inactive) | > 100 µM (inactive) | 37.2 µM (inactive) | 27.4 µM (inactive) | 48.3 µM (inactive) |
| c1c2c(cc3c1OCO3)-c1cc3ccc4c(c3c[n+]1CC2)OCO4 [COPTISINE CHLORIDE] | 0.447 µM (active) | 0.638 | 0.925 µM (active) | 1.29 µM (inactive) | 1.92 µM (inactive) | 0.798 µM (active) | 1.99 µM (inactive) | 1.2 µM (inactive) | 0.587 µM (active) | 2.09 µM (inactive) | 1.22 µM (inactive) | – | 0.462 µM (active) | > 12.5 µM (inactive) | 1.3 µM (inactive) | 3.85 µM (inactive) | 1.4 µM (inactive) | 5.57 µM (inactive) | 0.311 µM (active) | 0.944 µM (active) |
| CC(=O)OC1CC(O)CC2=CCC3C4CCC(C(C)(O)C(O)CC5COC(=O)C5C)C4(C)CCC3C21C (centres undefined) | 15.2 µM (inactive) | > 25 | > 25 µM (inactive) | > 25 µM (inactive) | 12.1 µM (inactive) | > 25 µM (inactive) | > 25 µM (inactive) | 24.5 µM (inactive) | 7.66 µM (inactive) | > 25 µM (inactive) | > 25 µM (inactive) | – | > 25 µM (inactive) | 8.43 µM (inactive) | > 25 µM (inactive) | > 25 µM (inactive) | > 25 µM (inactive) | > 25 µM (inactive) | 12.8 µM (inactive) | > 25 µM (inactive) |
| C/C(=N\NC(N)=O)C(CN(C)C)C(c1ccccc1)c1c(O)c2ccccc2oc1=O (centres undefined) | > 100 µM (inactive) | > 100 | > 100 µM (inactive) | 71.9 µM (inactive) | > 100 µM (inactive) | > 100 µM (inactive) | 88.7 µM (inactive) | > 100 µM (inactive) | > 100 µM (inactive) | > 100 µM (inactive) | > 100 µM (inactive) | – | > 100 µM (inactive) | > 100 µM (inactive) | > 100 µM (inactive) | > 100 µM (inactive) | > 100 µM (inactive) | 0.296 µM (active) | > 100 µM (inactive) | > 100 µM (inactive) |
| O=C1c2ccccc2/C(=N\c2ccc3ccccc3c2)C1(C1=C(c2ccccc2)/C(=N/c2ccc3ccccc3c2)c2ccccc21)c1ccccc1 (centres undefined) | 3.85 µM (inactive) | 2.55 | 4.14 µM (inactive) | 2.58 µM (inactive) | 7.21 µM (inactive) | 73.3 µM (inactive) | > 24 µM (inactive) | 6.27 µM (inactive) | 2.17 µM (inactive) | 9.48 µM (inactive) | 73.3 µM (inactive) | – | 36.6 µM (inactive) | 7.53 µM (inactive) | 5.57 µM (inactive) | 11.5 µM (inactive) | 12.5 µM (inactive) | > 100 µM (inactive) | 5.4 µM (inactive) | 4.41 µM (inactive) |
| CCOC(=O)C(NC(=O)c1ccccc1)(Nc1ccc(S(=O)(=O)Nc2cc(C)on2)cc1)C(F)(F)F (centres undefined) | > 100 µM (inactive) | > 100 | > 100 µM (inactive) | > 100 µM (inactive) | > 100 µM (inactive) | > 100 µM (inactive) | > 100 µM (inactive) | > 100 µM (inactive) | > 100 µM (inactive) | > 100 µM (inactive) | > 100 µM (inactive) | – | > 100 µM (inactive) | > 100 µM (inactive) | > 100 µM (inactive) | > 100 µM (inactive) | > 100 µM (inactive) | > 100 µM (inactive) | > 100 µM (inactive) | > 100 µM (inactive) |
| CSCCC(NC(=O)Cc1ccc(C(=O)c2ccccc2)cc1)C(=O)O (centres undefined) | > 100 µM (inactive) | > 100 | > 100 µM (inactive) | > 100 µM (inactive) | > 100 µM (inactive) | > 100 µM (inactive) | > 100 µM (inactive) | > 100 µM (inactive) | > 100 µM (inactive) | > 100 µM (inactive) | > 100 µM (inactive) | – | > 100 µM (inactive) | > 100 µM (inactive) | > 100 µM (inactive) | > 100 µM (inactive) | > 100 µM (inactive) | > 100 µM (inactive) | > 100 µM (inactive) | > 100 µM (inactive) |
| CN(C)/C=C(\C(=O)c1ccccc1)n1nc(-c2ccccc2)cc1-c1ccccc1 | > 10 µM (inactive) | > 10 | > 10 µM (inactive) | > 10 µM (inactive) | > 10 µM (inactive) | > 10 µM (inactive) | > 10 µM (inactive) | > 10 µM (inactive) | > 10 µM (inactive) | > 10 µM (inactive) | > 10 µM (inactive) | – | > 10 µM (inactive) | > 10 µM (inactive) | > 10 µM (inactive) | > 10 µM (inactive) | > 10 µM (inactive) | 7.38 µM (inactive) | > 10 µM (inactive) | > 10 µM (inactive) |
| COc1cc(C2c3[nH]c4ccc(F)cc4c3C[C@H]3COC(=O)N23)cc(OC)c1O (some centres undefined) | 5.78 µM (inactive) | 8.69 | 12.3 µM (inactive) | 3.73 µM (inactive) | 10.4 µM (inactive) | 13.4 µM (inactive) | 3.29 µM (inactive) | 7.96 µM (inactive) | 10.7 µM (inactive) | 13.5 µM (inactive) | 21.3 µM (inactive) | – | 9.46 µM (inactive) | 11 µM (inactive) | 15.9 µM (inactive) | 14.1 µM (inactive) | 5.71 µM (inactive) | 15.8 µM (inactive) | 15 µM (inactive) | 9.16 µM (inactive) |
| OC1NC2CC3NC(O)C(O)NC3CC2NC1O (centres undefined) | > 100 µM (inactive) | > 100 | > 100 µM (inactive) | > 100 µM (inactive) | > 100 µM (inactive) | > 100 µM (inactive) | > 100 µM (inactive) | > 100 µM (inactive) | > 100 µM (inactive) | > 100 µM (inactive) | > 100 µM (inactive) | – | > 100 µM (inactive) | > 100 µM (inactive) | > 100 µM (inactive) | > 100 µM (inactive) | > 100 µM (inactive) | > 100 µM (inactive) | > 100 µM (inactive) | > 100 µM (inactive) |
| O=C1c2ccccc2S(=O)(=O)c2cc(-c3nn[nH]n3)ccc21 [DOXANTRAZOLE] | > 100 µM (inactive) | > 100 | > 100 µM (inactive) | > 100 µM (inactive) | > 100 µM (inactive) | > 100 µM (inactive) | > 100 µM (inactive) | > 100 µM (inactive) | > 100 µM (inactive) | > 100 µM (inactive) | > 100 µM (inactive) | – | > 100 µM (inactive) | > 87.3 µM (inactive) | > 100 µM (inactive) | > 100 µM (inactive) | > 100 µM (inactive) | > 100 µM (inactive) | > 100 µM (inactive) | > 100 µM (inactive) |
| Oc1cc(-c2cccc3ccccc23)nc2ncccc12 | 0.0261 µM (active) | 0.00627 | 0.0122 µM (active) | 0.0506 µM (active) | 0.0339 µM (active) | 0.00457 µM (active) | 0.015 µM (active) | 0.0546 µM (active) | 0.0021 µM (active) | 0.09 µM (active) | 0.0274 µM (active) | – | 0.0344 µM (active) | 0.0242 µM (active) | 0.0418 µM (active) | 0.0745 µM (active) | 0.962 µM (active) | 0.434 µM (active) | 0.0201 µM (active) | 0.0182 µM (active) |
| CC(C)C(OC(=O)c1cc(NC(=S)c2ccccc2)ccc1Cl)C(C)C | 12.3 µM (inactive) | 9.27 | 5.69 µM (inactive) | 10.1 µM (inactive) | 16 µM (inactive) | 16.4 µM (inactive) | 13.1 µM (inactive) | 21.8 µM (inactive) | 14.2 µM (inactive) | 14.7 µM (inactive) | 38.4 µM (inactive) | – | 21.8 µM (inactive) | 17.2 µM (inactive) | 24.2 µM (inactive) | 12.4 µM (inactive) | 29.6 µM (inactive) | 8.39 µM (inactive) | 8.51 µM (inactive) | 8.53 µM (inactive) |
| O=CNc1ccc2c(c1)C(=O)c1ccccc1-2 | 37.8 µM (inactive) | 59.7 | 68.2 µM (inactive) | 44.7 µM (inactive) | > 100 µM (inactive) | > 100 µM (inactive) | 65.2 µM (inactive) | > 100 µM (inactive) | > 100 µM (inactive) | 30.3 µM (inactive) | > 100 µM (inactive) | – | 49.3 µM (inactive) | > 100 µM (inactive) | 57.8 µM (inactive) | > 100 µM (inactive) | 90.2 µM (inactive) | 72.8 µM (inactive) | 60.3 µM (inactive) | 68.2 µM (inactive) |
